Measured values as given in patent US20240294467A1, “USP9X Inhibitors” (ProDeg, LLC, priority 2021, published 2024).
Where two headings read alike, the source gives them in different places. Blank lines part the entries; values can stand above or below the molecule they belong to. Residues, ends and D or L forms follow the SMILES beside them. *: point of attachment. Cbz = O=C(OCc1ccccc1)*

What was measured:
MDA-MB-231 cells = assay: WST-1 cell viability assay; type: cell-based; conditions: Homo sapiens
Protocol: (§1) Compound Compound 9A was tested for the ability to inhibit the proliferation of Mia-Paca-2 pancreatic cancer cells. Mia-Paca-2 and MDA-MB-231 cells were seeded into the wells of a 96 well tissue culture plate in complete medium (10% fetal calf serum) and incubated overnight at 37° C./5% CO2). The medium was exchanged for fresh medium containing varying concentrations of Compound 9A and the plate was incubated for 72 hours at 37° C./5% CO2. The viability of cells at the end of this incubation was assessed with the WST-1 reagent. To 10 ml of warm (37° C.) complete medium, 1 ml WST-1 reagent was added. The medium from the wells of the plate with the Mia-Paca-2 cells was removed and replaced with 100 μL of the WST-1 reagent in complete medium. The plate was incubated at 37 37° C./5% CO2. At timed intervals the absorbance at 450 nm was determined for each well in a UVNis plate reader. For each well the slope of the plot of the absorbance 450 nm vs time was determined. The readings were normalized to that of the wells for the untreated control and a dose-response curve was plotted. A fit to the data was made from a four parameter, variable slope program (GraphPad Prism) and the IC50 was determined.
The TNBC cell line MDA-MB-231 express high levels of Mcl-1 and USP9X in addition to Bcl-2 and Bcl-xL. MDA-MB-231 cells were treated with ABT737 for 72 hours at varying concentrations and underwent western blot analysis.

U937 cells = assay: WST-1 cell viability assay; type: cell-based; conditions: Homo sapiens, U-937, U937 cells
Protocol: as §1
The effect of Compound 7A on U937 cells was assessed using the same experiment described in the Inhibitory Activities against the Proliferation of Mia-Paca-2 and Other Cancer Cells section above. In response to treatment with Compound 7A, proliferation of U937 leukemia cells was inhibited and induced apoptosis was obsessed by trypan blue staining.
U937 cells were treated with the Bcl-2/Bcl-xL inhibitor ABT737 72 hours at varying concentrations and underwent western blot analysis.

[1] = tested on: Mia-Paca-2 pancreatic cancer cells; assay: WST-1 cell viability assay; type: cell-based; conditions: for cell viability: Mia-Paca-2 pancreatic cells
Protocol: as §1
(§2) The same procedures were also applied to the compounds Compound 7A, Compound 6A, and Compound 8A to test their inhibitory activities against RKO colon, Mia-Paca-2 pancreatic and BT-549 cancer cells.

RKO colon cells = assay: WST-1 cell viability assay; type: cell-based
Protocol: as §1, §2

BT-549 cancer cells = assay: WST-1 cell viability assay; type: cell-based, human; conditions: BT-549 cells
Protocol: as §1, §2

USP9X [2] = biological target: T1, USP9X (Homo sapiens (Human), UniProt Q93008); assay: USP9X enzyme activity assay, ubiquitin-rhodamine110 substrate
Target sequence in this assay (Q93008 whole entry): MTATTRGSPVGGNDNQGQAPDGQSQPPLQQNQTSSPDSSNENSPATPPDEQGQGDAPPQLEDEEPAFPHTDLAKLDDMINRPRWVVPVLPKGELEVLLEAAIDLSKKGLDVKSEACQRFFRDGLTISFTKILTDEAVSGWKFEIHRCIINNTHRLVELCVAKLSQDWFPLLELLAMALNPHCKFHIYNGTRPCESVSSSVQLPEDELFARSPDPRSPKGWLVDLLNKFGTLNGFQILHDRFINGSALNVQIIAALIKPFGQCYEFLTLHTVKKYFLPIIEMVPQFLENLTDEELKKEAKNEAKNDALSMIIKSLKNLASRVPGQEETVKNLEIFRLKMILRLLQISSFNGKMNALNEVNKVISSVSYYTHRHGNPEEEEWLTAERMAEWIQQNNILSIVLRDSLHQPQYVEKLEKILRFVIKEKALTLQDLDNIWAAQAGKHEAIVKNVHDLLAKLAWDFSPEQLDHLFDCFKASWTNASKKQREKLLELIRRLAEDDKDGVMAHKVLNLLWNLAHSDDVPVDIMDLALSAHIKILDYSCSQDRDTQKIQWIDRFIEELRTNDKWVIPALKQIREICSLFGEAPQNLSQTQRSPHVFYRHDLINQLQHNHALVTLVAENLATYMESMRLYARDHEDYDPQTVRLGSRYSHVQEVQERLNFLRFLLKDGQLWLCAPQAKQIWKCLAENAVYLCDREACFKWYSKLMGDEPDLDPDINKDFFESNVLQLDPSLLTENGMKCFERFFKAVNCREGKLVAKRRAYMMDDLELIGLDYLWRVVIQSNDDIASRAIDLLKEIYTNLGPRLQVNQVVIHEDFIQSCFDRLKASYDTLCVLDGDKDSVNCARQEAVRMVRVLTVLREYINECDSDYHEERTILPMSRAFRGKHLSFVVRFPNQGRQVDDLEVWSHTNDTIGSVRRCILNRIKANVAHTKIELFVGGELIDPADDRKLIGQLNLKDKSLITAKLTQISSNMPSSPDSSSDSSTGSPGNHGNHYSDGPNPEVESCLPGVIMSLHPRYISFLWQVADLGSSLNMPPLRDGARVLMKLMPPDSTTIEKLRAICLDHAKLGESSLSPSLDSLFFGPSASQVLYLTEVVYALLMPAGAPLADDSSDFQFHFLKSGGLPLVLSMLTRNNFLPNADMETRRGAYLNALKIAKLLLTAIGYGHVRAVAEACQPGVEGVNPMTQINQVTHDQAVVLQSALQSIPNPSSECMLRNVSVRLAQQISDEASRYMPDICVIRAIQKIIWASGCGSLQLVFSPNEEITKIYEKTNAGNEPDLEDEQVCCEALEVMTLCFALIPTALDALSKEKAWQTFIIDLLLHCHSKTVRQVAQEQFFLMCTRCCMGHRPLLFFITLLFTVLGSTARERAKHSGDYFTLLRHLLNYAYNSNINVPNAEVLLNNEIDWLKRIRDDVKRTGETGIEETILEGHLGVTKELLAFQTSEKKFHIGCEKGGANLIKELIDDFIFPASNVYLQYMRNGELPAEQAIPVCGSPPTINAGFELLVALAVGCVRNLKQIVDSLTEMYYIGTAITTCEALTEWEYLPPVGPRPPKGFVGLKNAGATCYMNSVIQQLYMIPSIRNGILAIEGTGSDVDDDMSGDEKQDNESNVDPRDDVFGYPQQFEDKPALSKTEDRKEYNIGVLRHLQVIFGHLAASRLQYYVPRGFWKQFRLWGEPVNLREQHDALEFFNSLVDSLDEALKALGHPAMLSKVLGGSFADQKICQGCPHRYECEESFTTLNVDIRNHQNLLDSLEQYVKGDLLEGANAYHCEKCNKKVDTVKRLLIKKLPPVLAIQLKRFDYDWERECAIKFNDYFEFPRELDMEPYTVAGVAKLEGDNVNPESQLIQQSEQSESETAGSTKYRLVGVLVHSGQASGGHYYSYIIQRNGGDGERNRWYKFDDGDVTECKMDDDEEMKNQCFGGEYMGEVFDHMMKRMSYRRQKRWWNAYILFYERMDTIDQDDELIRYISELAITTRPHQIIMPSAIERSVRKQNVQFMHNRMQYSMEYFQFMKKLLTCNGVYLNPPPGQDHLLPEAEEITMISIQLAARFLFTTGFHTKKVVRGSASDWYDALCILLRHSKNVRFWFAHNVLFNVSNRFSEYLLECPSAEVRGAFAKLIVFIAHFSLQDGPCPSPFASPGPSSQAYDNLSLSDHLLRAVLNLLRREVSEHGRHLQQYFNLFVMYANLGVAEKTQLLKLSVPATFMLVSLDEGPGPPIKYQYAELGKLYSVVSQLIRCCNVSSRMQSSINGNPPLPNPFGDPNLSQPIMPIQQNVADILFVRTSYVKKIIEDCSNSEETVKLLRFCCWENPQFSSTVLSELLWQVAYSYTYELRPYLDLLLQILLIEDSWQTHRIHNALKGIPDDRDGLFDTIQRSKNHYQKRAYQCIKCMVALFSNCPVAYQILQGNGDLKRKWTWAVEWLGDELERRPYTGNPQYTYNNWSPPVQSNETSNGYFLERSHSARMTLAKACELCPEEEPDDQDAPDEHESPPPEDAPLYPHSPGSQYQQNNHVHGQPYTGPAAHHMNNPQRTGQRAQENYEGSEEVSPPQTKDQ
Protocol: The inhibition property of compound Compound 1A was evaluated in assays measuring the ability of USP9X to catalyze the hydrolysis of the amide bond between the C terminal carboxylate of ubiquitin and rhodamine110 of the fluorogenic substrate ubiquitin-rhodamine 110. To the wells of a 96 well reaction plate was added 12.5 μL USP9X solution (1.3 nM) in assay buffer (100 mM NaCl, 1 mM DTT, 0.1% bovine serum albumin, 0.05% Tween 20, 50 mM Tris, pH 7.5). 12.5 μL of Compound 1A in assay buffer (4×final concentration) was added to the wells containing the USP9X solution, and the solution was gently mixed by pipetting up and down several times. The plate was sealed and incubated at room temperature for 20 minutes.
Then 25 μL of the 1 μM substrate (ubiquitin-rhodaminel10) solution was added in assay buffer. The final substrate concentration was 0.5 μM. […] The slope for the rate of change of the fluorescence was determined and plotted vs the concentration of Compound 1A.
USP9X enzyme assays were set up in a 96 well plate to assess the abilities of Compound 3A and Compound 4A to inhibit the activity of USP9X, respectively. Ubiquitin-rhodamine110 was used as the substrate and ubiquitin aldehyde was included in the assay as a positive control.
Purified recombinant USPx9 (R&D Systems) in 50 mM Tris buffer pH 7.5, 1 mM DTT, 100 mM NaCl, 0.05% Tween 20 and 0/1% BSA is used at a concentration of 0.325 nM with 0.5 μM ubiquitin-rhodamine (R&D Systems).

USP9X [3] = biological target: T1, USP9X; assay: Steady-state enzyme inhibition kinetics of USP9X; type: biochemical
Text: The data were fit to a general model for enzyme inhibition (FIG. 1E) so the values of the parameters determined from the assays specified the mode of inhibition. For example, in the case of α=1 and β=0, it corresponded to purely non-competitive inhibition. For α=infinity and p=1, it corresponded to purely competitive inhibition. The values of all the parameters, KS, KI, kcat, α, and β could be determined from the steady state measurements. The enzyme reactions were set up as described in the Inhibiting the catalytic activity of USP9X section. The concentration of the substrate ubqiutin-rhodamine110 was varied. The initial rates of the reactions were determined at several concentrations of the inhibitor Compound 2A. In order to determine the values of the parameters KS and kcat, the reaction rates in the absence of the inhibitor Compound 2A, the initial reaction rate data were fit to the standard Michaelis-Menten equation v=Vmax [S]/(Km+[S]). The values of α and β could then be determined by fitting the initial rate data of the enzyme reaction at various concentrations of Compound 2A to a modified version of the Michaelis-Menten equation, designating both Vmax and KS apparent to distinguish the apparent values of the parameters determined from these plots to the true values for these parameters determined from the steady state kinetics in the absence of Compound 2A. The values of α and β could be determined from the variation of the slopes and intercepts of the series of double reciprocal plots of 1/v versus 1/[S] for each concentration of Compound 2A. […] The two values determined for KI were from the two different plots.
The two values for KI were determined by two different methods for determining this parameter from the kinetic data: 1 represented a value determined from the slope of the 1/A intercept vs 1/[I] plot; 2 represented a value determined from the y intercept of the 1/A slope vs 1/[I] plot. […] Only the values of the parameters varied for the compounds.
Target sequence in this assay (Q93008 whole entry): as above

USP24 = USP24 (Homo sapiens (Human), UniProt Q9UPU5); conditions: cited from earlier work
USP9X [4] = biological target: T1, USP9X; conditions: cited from earlier work
Target sequence in this assay (Q93008 whole entry, species assumed): as the sequence (Q93008 whole entry) above

USP5 = USP5 (Homo sapiens (Human), UniProt P45974); conditions: cited from earlier work
Chain of USP5 (P45974 whole entry, species assumed): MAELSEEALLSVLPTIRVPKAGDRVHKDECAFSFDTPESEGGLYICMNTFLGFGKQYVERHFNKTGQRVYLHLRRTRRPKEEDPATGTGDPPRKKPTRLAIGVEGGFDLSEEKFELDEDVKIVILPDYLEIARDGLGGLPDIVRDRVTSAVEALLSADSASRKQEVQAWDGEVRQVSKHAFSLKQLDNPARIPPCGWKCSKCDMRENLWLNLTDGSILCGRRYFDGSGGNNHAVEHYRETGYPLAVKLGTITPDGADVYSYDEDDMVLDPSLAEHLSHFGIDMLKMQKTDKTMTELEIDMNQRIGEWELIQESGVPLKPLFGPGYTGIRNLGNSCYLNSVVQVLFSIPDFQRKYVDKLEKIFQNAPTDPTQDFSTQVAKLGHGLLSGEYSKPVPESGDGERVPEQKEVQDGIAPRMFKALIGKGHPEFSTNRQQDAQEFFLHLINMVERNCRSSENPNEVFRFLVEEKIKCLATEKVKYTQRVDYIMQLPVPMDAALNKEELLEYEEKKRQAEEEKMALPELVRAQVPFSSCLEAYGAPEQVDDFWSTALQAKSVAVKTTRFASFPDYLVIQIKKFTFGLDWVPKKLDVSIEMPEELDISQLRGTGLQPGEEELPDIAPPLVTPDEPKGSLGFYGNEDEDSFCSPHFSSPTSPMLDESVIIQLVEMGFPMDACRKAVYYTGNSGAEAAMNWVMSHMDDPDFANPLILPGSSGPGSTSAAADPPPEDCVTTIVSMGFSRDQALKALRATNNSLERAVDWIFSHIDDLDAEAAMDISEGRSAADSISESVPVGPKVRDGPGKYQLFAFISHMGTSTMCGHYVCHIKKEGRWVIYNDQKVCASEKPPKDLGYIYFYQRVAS

Mcl-1 = assay: Western blot of Mcl-1 in U937 cells; type: cell-based; conditions: agent alone
Protocol: After 24 hours treatment with Compound 7A, U937 cells were collected by centrifugation and whole cell lysates were prepared. These lysates were analyzed by Western blot to determine the level of Mcl-1. Western blot analysis was carried out as previously described (Wang et al., 2014 Journal of the American Society of Nephrology DOI: 10.1681/asn.2013060665). The band intensity for Mcl-1 in these samples were normalized to that of tubulin to correct for any inconsistencies in total protein in loading and processing the whole cell lysates.
To investigate the mechanism of action, Western blot analysis was carried out to test the induced degradation of USP9X substrate Mcl-1 by the compounds under the effects of protein synthesis inhibitor cycloheximide and/or proteasome inhibitor MG132. U937 cells were treated with 10 μM cycloheximide for one hour, with 10 μM MG132 for one hour, with the combination of 10 μM cycloheximide and 10 μM MG132 for one hour, and with vehicle (DMSO) for one hour, respectively, prior to the treatment with Compound 5A for 24 hrs. The U937 cells were harvested after treatment and whole cell lysates were prepared. These lysates were analyzed by Western blot to determine the abundance of Mcl-1 as well as that of tubulin as a normalization control. […] The band intensity of the Mcl-1 in cells treated with cycloheximide alone (Lane 2) was reduced relative to that for tubulin. […] Global blockade of protein synthesis by cycloheximide led to a significant decrease in the expression levels, especially for short lived Mcl-1. The retention of a reduced portion of Mcl-1 indicated the immunity of this portion to proteasomal degradation. […] In contrast, the band intensity of Mcl-1 relative to that of tubulin increased upon treatment of U937 cells with the proteasome inhibitor MG132 (Lane 4). […] Together, the results of this Example are consistent with the compounds acting on the proposed mechanism that intracellular inhibition of the deubiquitylase activity of USP9X blocks its ability to rescue USP9X substrates such as Mcl-1 from proteasomal degradation. In other aspects, by varying the concentration ratios of the compound and proteasome inhibitor for treating cells, it was possible to achieve controlled degradation of a USP9X substrate so the substrate could decline to a desirable level rather than degrade entirely.

[5] = 72 hours, single agent, read-out: IC50, cell viability
[6] = read-out: USP9X IC50/UM, Table 8

IC50 (MDA-MB-231 cells; [5]): 8.7 µM | IC50 (MDA-MB-231 cells; co-treated with 10 μM Compound 5A, read-out: IC50 of ABT737 with co-treatment): 1.8 µM | IC50 (U937 cells; 72-hour treatment, single agent, read-out: IC50, cell viability): 3.4 µM | IC50 (U937 cells; with 0.5 μM Compound 7A, read-out: IC50 of ABT737 with co-treatment): 0.06 µM
Molecule: CN(C)CC[C@H](CSc1ccccc1)Nc1ccc(S(=O)(=O)NC(=O)c2ccc(N3CCN(Cc4ccccc4-c4ccc(Cl)cc4)CC3)cc2)cc1[N+](=O)[O-] [ABT737, reference compound]

Molecule: CN1CCCCOc2ccc(cc2)C(=O)NCc2cccc(c2)C(=O)N[C@@H](CC(C)(C)C)C(=O)Nc2ccc(cc2)CCC1=O [Compound 6A]
cell viability [1]: significant decreases | cell viability (RKO colon cells): significant decreases | cell viability (BT-549 cancer cells): significant decreases

Molecule: CN1CCCCOc2ccc(cc2)C(=O)NCc2ccc(F)c(c2)C(=O)N[C@@H](CC(C)(C)C)C(=O)Nc2ccc(cc2)CCC1=O [Compound 8A]
cell viability [1]: significant decreases | cell viability (RKO colon cells): significant decreases | cell viability (BT-549 cancer cells): significant decreases

IC50 (MDA-MB-231 cells; [5]): 2 µM | IC50 ([1]; Homo sapiens, Mia-Paca-2 cells, 72 hours, read-out: IC50, inhibition of proliferation): 0.01 µM
Molecule: CN1CCOc2ccc(c(F)c2)C(=O)NCc2cccc(c2)C(=O)N[C@@H](CC(C)(C)C)C(=O)Nc2ccc(cc2)CCN(C)C(=O)CC(C)(C)CC1=O [Compound 9A]

IC50 (USP9X [2]; read-out: IC50 for the inhibition of USP9X activity, ubiquitin-rhodamine110 substrate): 48 nM | IC50 (USP9X [2]; read-out: USP9X IC50 nM, Table 2): 48 nM | KS (USP9X [3]): 0.91 µM | VMAX RFU/min (USP9X [3]): 408 RFU/min | α (USP9X [3]): 2 | β (USP9X [3]): 0.88 | Ki (USP9X [3]; from the slope of the 1/Δ intercept vs 1/[I] plot, read-out: KI, nM (1)): 7 nM | Ki (USP9X [3]; from the y intercept of the 1/Δ slope vs 1/[I] plot, read-out: KI, nM (2)): 69 nM
Molecule: CN1CCOc2ccc(c(F)c2)C(=O)NCc2ccc(F)c(c2)C(=O)N[C@@H](CC(C)(C)C)C(=O)Nc2ccc(cc2)CCN(C)C(=O)CC(C)(C)CC1=O [Compound 11A]

Molecule: CNC(=O)c1cccc(CNC(=O)c2ccc(OCCNC(=O)CC(C)(C)CC(=O)NCCc3ccc(NC(=O)[C@H](CC(C)(C)C)NC(C)=O)cc3)cc2)c1 [Compound 71]
USP9X IC50/UM (USP9X [2]; Table 8): >50 UM

IC50 (USP9X [2]; [6]): 29000 nM
Molecule: CC(C)(C)C[C@H](NC(=O)c1cccc(CN)c1)C(=O)Nc1ccc(CCNC(=O)CC(C)(C)CC(=O)NCCOc2ccc(C(=O)O)cc2)cc1 [Compound 72]

Molecule: CC(=O)NCc1cccc(C(=O)N[C@@H](CC(C)(C)C)C(=O)Nc2ccc(CCNC(=O)CC(C)(C)CC(=O)NCCOc3ccc(C(=O)O)cc3)cc2)c1 [Compound 73]
IC50 (USP9X [2]; [6]): 15000 nM

Molecule: CNC(=O)c1ccc(OCCNC(=O)CC(C)(C)CC(=O)NCCc2ccc(NC(=O)[C@H](CC(C)(C)C)NC(=O)c3cccc(CNC(C)=O)c3)cc2)cc1 [Compound 74]
IC50 (USP9X [2]; [6]): 12000 nM

Molecule: CCCC(NC(=O)/C(C#N)=C/c1nc(Cl)ccc1Cl)c1ccc(OCCN2CCOCC2)cc1 (stereo not drawn) [EOAI3402143]
inhibits USP24 (USP24): inhibits | inhibits USP9X (USP9X [4]): inhibits | inhibits USP5 (USP5): inhibits

Molecule: CC(C)C[C@@H](C=O)NC(=O)[C@H](CC(C)C)NC(=O)[C@H](CC(C)C)NC(=O)OCc1ccccc1 [MG132, reference compound] (Cbz-Leu-Leu-Leu-aldehyde)
band intensity of Mcl-1 relative to tubulin (Mcl-1): increased

Molecule: C[C@@H]1C[C@@H]([C@H](O)CC2CC(=O)NC(=O)C2)C(=O)[C@@H](C)C1 [cycloheximide, reference compound]
band intensity of Mcl-1 relative to tubulin (Mcl-1): reduced

effect on USP9X activity (USP9X [2]; ubiquitin-rhodamine110 substrate): completely abolished
Molecule: ubiquitin aldehyde [reference compound]
